Data taken from patent US8329230B2, “Natural hair care composition, methods for obtaining the same and use thereof” (priority 2004, dated 2012).
Entries after “also recorded” stand apart in the source; their conditions may differ.

How the values were obtained:
[1] = tested on: chemotherapy induced alopecia; test: Chemotherapeutic agent (cyclophosphamide) induced alopecia model, topical extracts; assay type: in vivo, rat pups of Sprague-Dawley strain
Procedure: Eight-day old rat pups of Sprague-Dawley strain of either sex, bred in Experimental Animal Facility of R&D Center, The Himalaya Drug Company, were used for the experiment. The animals were maintained at 22±3° C., 50-60% of humidity, 12 hours light and dark cycle.
Screening of Extracts in Chemotherapeutic Agent Induced Alopecia Model:
Three Groups of 8 rat pups are used. Group I served normal control and received saline at a dose of 10 ml/kg i.p. Group II & Group III animals received Cyclophosphamide (CP) at a dose of 50 mg/kg i.p. as a single dose. Test extracts PCPB-1 to PCPB-10, PCPB-1P to PCPB-10P and PCPB-1S to PCPB-10S were applied topically to Group III animals everyday from day one after Cyclophosphamide administration till the end of the study. On the 12th day of post Cyclophosphamide injection, the animals were graded for alopecia as given below.
2+—Moderately severe alopecia with more than 50% hair loss
3+—Severe and total alopecia.

[2] = tested on: murine hair epithelial cells; conditions: Phytother. Res. 15, 331-36, 2001; cited from earlier work
male pattern baldness = conditions: Phytother. Res. 15, 331-36, 2001; cited from earlier work
[3] = tested on: Cladosporium cladosporioides (Fres.) de Vries; conditions: cited from earlier work
heart rate = conditions: oral; cited from earlier work

O=P1(N(CCCl)CCCl)NCCCO1 (stereo not drawn) [CP, Cyclophosphamide]
hair growth, stereosome photograph ([1]; figure legends FIGS. 2, 3): scanty hairs
alopecia, appearance of rat pups ([1]; figure legends FIGS. 5, 6): high degree of alopecia
hair follicles, photomicrograph of skin section ([1]; figure legends FIGS. 8-10): degenerating hair follicles with decrease in their numbers; also recorded: degenerating hair follicles with epidermal down growth
alopecia grade, Mean SEM ([1]; mean ± SEM of 8 rat pups, graded 0 to 3+ on 12th day post CP): 2.88 ± 0.13

Oc1cc(O)c2c(c1)O[C@H](c1ccc(O)c(O)c1)[C@H](O)[C@H]2c1c(O)cc(O)c2c1O[C@H](c1ccc(O)c(O)c1)[C@H](O)C2 [Procyanidin B-2]
growth promoting effect on hair epithelial cells [2]: acts as growth promoting factor
potential as cure for male pattern baldness (male pattern baldness): showed potential as promising cure

COc1ccc2c(c1)OC1c3ccc(OC(C)=O)cc3OCC21 (single isomer, unassigned; (-)) [(−)-medicarpin acetate]
anti-fungal activity [3]: active

Nc1cc(N2CCCCC2)nc(N)[n+]1[O-] [Minoxidil]
effect on heart rate (heart rate): reported to affect heart rate in some patients

COc1ccc2c(c1)O[C@H]1c3ccc(O)cc3OC[C@@H]21 [(−)-medicarpin, (−)-3-hydroxy-9-methoxy ptero carpan]
anti-fungal activity [3]: active
